The results in this text go back to ChEMBL document CHEMBL1130933, “Structure-based design of N-[2-(1-piperidinylethyl)]-N'-[2-(5-bromopyridyl)]-thiourea and N-[2-(1-piperazinylethyl)]-N'-[2-(5-bromopyridyl)]-thiourea as potent non-nucleoside inhibitors of HIV-1 reverse transcriptase” (Bioorg Med Chem Lett, 1998).

What all share (type): functional
The nature of experiment [1]: Inhibitory effect on p24 production in HIV-infected peripheral blood mononuclear cells. The conditions noted are these: Homo sapiens.
The nature of experiment [2]: Selective index was evaluated from inhibitory concentrations of compound.
Experiment [3] in a line: Compound was evaluated for cellular proliferation (on viability of peripheral blood mononuclear cells) using microculture tetrazolium assay (MTA). The note with it: Homo sapiens.

For `S=C(NCCN1CCNCC1)Nc1ccc(Br)cn1`, the IC50 is 2 nM in experiment [1] and more than 100000 nM in experiment [3]. The Selectivity index in experiment [2] is more than 50000.
On the same counts, the results for `S=C(NCCN1CCCCC1)Nc1ccc(Br)cn1` are less than 1 nM, more than 100000 nM and more than 100000.
As for `Cc1cn([C@H]2C[C@H](N=[N+]=[N-])[C@@H](CO)O2)c(=O)[nH]c1=O` [ZIDOVUDINE], the half-maximal inhibitory concentration (IC50) worked out at 6 nM in experiment [1] and 50000 nM in experiment [3].
In the case of `S=C(NCCc1ccccn1)Nc1ccc(Br)cn1` [TROVIRDINE], the concentration for half-maximal inhibition (IC50) was 7 nM in experiment [1] and more than 100000 nM in experiment [3]. In experiment [2], the Selectivity index is more than 10000.
